# Source: patent publication US20260240800A1, “ELAFIBRANOR FOR THE TREATMENT OF PRIMARY BILIARY CHOLANGITIS” (Genfit, priority 2023, published 2026)
# Tested on: participants with primary biliary cholangitis
# Experiment: NCT04526665 (ELATIVE) double-blind, placebo-controlled phase 3 clinical trial
# Format: in vivo, human
# Experimental: Participants aged 18 to 75 years, who had been diagnosed with primary biliary cholangitis according to established criteria, were recruited at 82 sites in 14 countries. Inclusion criteria were an alkaline phosphatase level of ≥1.67 times the upper limit of the normal range (ULN), and a total bilirubin level of ≤2 times the ULN. Prior to screening, eligible participants had received 13 to 15 mg/kg ursodeoxycholic acid treatment per day for at least 12 months (stable dose for at least 3 months) or were intolerant to ursodeoxycholic acid (no treatment for at least 3 months).
# In this double-blind, placebo-controlled, phase 3 trial, participants with an inadequate response or intolerance to ursodeoxycholic acid were randomized 2:1 to receive elafibranor 80 mg or placebo once daily. Participants receiving stable doses of ursodeoxycholic acid for at least three months prior to enrollment continued their treatment regimen throughout the trial. The overall double-blind treatment period consisted of two parts. In part one, all randomized participants received a minimum of 52 weeks of double-blind treatment. In part two, participants continued to receive double-blind treatment beyond Week 52 in a variable treatment period until all participants had completed their Week 52 assessment or until a maximum treatment duration of 104 weeks, whichever came first. The first database lock occurred after the last participant completed their Week 52 visit in the double-blind period. At the end of the double-blind period (lasting 52 to 104 weeks), participants could optionally enter an open-label extension where they would receive elafibranor 80 mg for up to five years.
# The primary endpoint of Study NCT04526665 was response to treatment in the intent-to-treat population at Week 52, defined as ALP<1.67×ULN, TB≤ULN, and ALP decrease ≥15% from baseline. The primary endpoint was also analyzed according to baseline alkaline phosphatase levels of ≤3 times versus >3 times the ULN.
# From September 2020 through May 2023, 161 participants were randomly assigned to receive elafibranor 80 mg (108 participants) or placebo (53 participants); these participants made up the intent-to-treat (ITT) and safety populations.
compound,measurement,setting,value
"CSc1ccc(C(=O)C=Cc2cc(C)c(OC(C)(C)C(=O)O)c(C)c2)cc1 [elafibranor, 2-(2,6-dimethyl-4-{3-[4-(methylsulfanyl)phenyl]-3-oxoprop-1-en-1-yl}phenoxy)-2-methylpropanoic acid]",efficacy in baseline ALP >1.67×ULN and ≤3×ULN relative to baseline ALP >3×ULN,80 mg daily,more than 3 times
same,"Primary endpoint met at week 52, n (%)","1.67 ULN < ALP ≤ 3 ULN, ITT Analysis Set, n=65",46 (70.8) n (%)
same,"Response according to Paris I criteria: Primary endpoint met at week 52, n (%)","ALP <3×ULN, AST <2×ULN and TB ≤1 mg/dL, ITT Analysis Set, n=106",73 (68.9) n (%)
same,"Primary endpoint met at week 52, n (%)","ALP > 3 ULN, ITT Analysis Set, n=43",9 (20.9) n (%)
same,safety and tolerability in patients,PBC patients,safe and well-tolerated
same,"Odds Ratio of response (elafibranor vs placebo), Paris I criteria","Week 52, ITT Analysis Set",2.852
same,Proportion of responders (Paris I criteria),"Week 52, ITT Analysis Set",0.689
same,"Risk difference (Paris I response, elafibranor vs placebo)","Week 52, ITT Analysis Set",0.220
same,difference in Paris I response vs placebo,"Week 52, ITT Analysis Set",22.0%
same,"participants with response based on ALP<3×ULN, AST<2×ULN and TB≤1 mg/dl (Paris I)","Week 52, ITT Analysis Set, 73/106",68.9%
same,"complete normalization of alkaline phosphatase at Week 52, difference vs placebo","all participants, Week 52",15%
same,"complete normalization of alkaline phosphatase at Week 52, odds ratio vs placebo","all participants, Week 52, 95% CI 2.8 to infinity",infinity
same,"complete normalization of alkaline phosphatase at Week 52, % of participants","all participants, elafibranor 80 mg once daily, Week 52",15%
same,"complete normalization of alkaline phosphatase at Week 52, % of patients",baseline ALP >3 times the ULN,4.7%
same,"participants who met the primary endpoint (ALP<1.67×ULN, TB≤ULN, ALP decrease ≥15%)","baseline ALP >3 times the ULN (43 participants), Week 52",20.9%
same,frequency of ALP normalization relative to other participants (FIG. 4),"baseline ALP more than 1.67×ULN and at most 2×ULN vs others, Week 52",at least 4 times
same,participants with a biochemical response at Week 52 (FIG. 3),baseline ALP more than 1.67×ULN and at most 2.5×ULN,more than 80%
same,participants with a biochemical response at Week 52 (FIG. 3),baseline ALP more than 2.5×ULN and at most 3×ULN,more than 50%
same,participants with a biochemical response at Week 52 (FIG. 3),baseline ALP more than 3×ULN,less than 23%
same,biochemical response and ALP normalization rates by baseline ALP (FIGS. 3 to 5),baseline ALP ≤3 ULN versus higher baseline ALP,higher biochemical response and ALP normalization rates
same,"complete normalization of alkaline phosphatase at Week 52, % of patients",baseline ALP ≤3 times the ULN,21.5%
same,"participants who met the primary endpoint (ALP<1.67×ULN, TB≤ULN, ALP decrease ≥15%)","baseline ALP ≤3 times the ULN (65 participants), Week 52",70.8%
same,reductions in alkaline phosphatase levels over time,"baseline through Week 4, sustained significantly lower than placebo through Week 52",Rapid reductions
same,reduction in plasma ALP levels from baseline compared to placebo,treatment with elafibranor vs placebo,statistically significant reduction
